What was measured:
TNK1 = target: T1, TNK1 (Homo sapiens, UniProt Q13470); assay: Inhibitory effect on TNK1 in vitro and in vivo
T1 sequence (Q13470 1-666): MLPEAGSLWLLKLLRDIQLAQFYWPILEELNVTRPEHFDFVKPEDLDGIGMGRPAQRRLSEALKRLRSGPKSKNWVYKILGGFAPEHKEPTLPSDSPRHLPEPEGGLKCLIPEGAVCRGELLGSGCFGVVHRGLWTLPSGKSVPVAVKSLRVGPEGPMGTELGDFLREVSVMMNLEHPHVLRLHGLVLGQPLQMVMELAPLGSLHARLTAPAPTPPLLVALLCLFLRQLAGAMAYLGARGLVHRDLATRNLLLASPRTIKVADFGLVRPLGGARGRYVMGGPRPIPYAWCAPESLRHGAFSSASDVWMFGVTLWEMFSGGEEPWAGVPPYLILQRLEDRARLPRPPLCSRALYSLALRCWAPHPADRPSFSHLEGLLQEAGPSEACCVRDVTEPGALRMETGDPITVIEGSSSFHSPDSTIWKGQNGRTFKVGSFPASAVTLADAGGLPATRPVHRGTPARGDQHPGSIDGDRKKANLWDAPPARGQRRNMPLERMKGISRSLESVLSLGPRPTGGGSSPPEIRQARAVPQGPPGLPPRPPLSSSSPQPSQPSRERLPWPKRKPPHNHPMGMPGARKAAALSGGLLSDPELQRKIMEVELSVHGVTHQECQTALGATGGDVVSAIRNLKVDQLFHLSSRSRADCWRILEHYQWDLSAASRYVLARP

PLK4 = target: T2, PLK4 (Homo sapiens, UniProt O00444); assay: Inhibitory effect on PLK4 in vitro and in vivo
T2 sequence (O00444 1-970): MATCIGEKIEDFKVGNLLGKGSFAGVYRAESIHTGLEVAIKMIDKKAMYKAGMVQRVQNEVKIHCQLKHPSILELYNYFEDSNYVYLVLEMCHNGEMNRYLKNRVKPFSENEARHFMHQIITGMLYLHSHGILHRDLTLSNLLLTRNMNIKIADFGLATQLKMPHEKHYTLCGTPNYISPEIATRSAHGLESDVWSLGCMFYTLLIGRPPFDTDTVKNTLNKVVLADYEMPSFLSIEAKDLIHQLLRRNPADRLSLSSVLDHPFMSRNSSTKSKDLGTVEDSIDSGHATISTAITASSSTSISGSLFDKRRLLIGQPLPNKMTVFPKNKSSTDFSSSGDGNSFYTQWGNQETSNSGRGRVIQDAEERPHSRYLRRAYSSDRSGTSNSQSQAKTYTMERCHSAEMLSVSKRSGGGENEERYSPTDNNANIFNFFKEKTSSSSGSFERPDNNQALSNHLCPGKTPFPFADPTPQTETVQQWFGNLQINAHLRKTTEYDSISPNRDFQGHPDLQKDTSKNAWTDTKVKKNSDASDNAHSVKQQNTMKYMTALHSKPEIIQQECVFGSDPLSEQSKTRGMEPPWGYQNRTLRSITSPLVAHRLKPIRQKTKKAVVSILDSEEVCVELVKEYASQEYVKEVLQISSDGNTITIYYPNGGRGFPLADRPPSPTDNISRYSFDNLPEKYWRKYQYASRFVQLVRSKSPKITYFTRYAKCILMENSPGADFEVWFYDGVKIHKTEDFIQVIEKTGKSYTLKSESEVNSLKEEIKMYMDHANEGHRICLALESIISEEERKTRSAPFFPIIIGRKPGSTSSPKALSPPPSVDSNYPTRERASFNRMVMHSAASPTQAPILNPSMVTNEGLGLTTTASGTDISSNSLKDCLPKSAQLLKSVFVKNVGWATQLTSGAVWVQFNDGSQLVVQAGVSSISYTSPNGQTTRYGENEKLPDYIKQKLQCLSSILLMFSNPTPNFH

HeLa cells = assay: HeLa cell proliferation, MTT assay; assay type: cell-based, human; conditions: 5 μM, 48 hr, compared with Ad-BMK1(AEF)
[1] = mouse, in vivo, ip, 50 mg/kg

In the case of `CCOc1cc(N2CCC(O)CC2)ccc1Nc1ncc2c(n1)N(C)c1ccccc1C(=O)N2C` [XMD8-92], the “inhibitory effect on TNK1” value (TNK1) is reported as “no significant inhibitory effect”, the “inhibitory effect on PLK4” value (PLK4) is reported as “no significant inhibitory effect” and the “extent of inhibition of proliferation” value (HeLa cells) is reported as “indistinguishable from that by dominant negative BMK1”. The tolerability [1] was “well tolerated”.
